Experimental findings from ChEMBL document CHEMBL1148242, “New benzo[5,6]pyrrolizino[1,2-b]quinolines as cytotoxic agents” (Bioorg Med Chem Lett, 2004) are described below.

SMILES strings stand for the structures. pIC50: −log10 of the molar value. A value given as a limit tells only on which side of the number the result lay.

What all share (type): functional, cell-based
One assay has as its system L1210. Put plainly: In vitro cytotoxic activity of compound against mouse leukemia L1210 cell line.
The subject of a further assay is PC-3. Put plainly: In vitro cytotoxic activity of compound against human PC3 cell line.
Another assay deals with MCF7. Put plainly: In vitro cytotoxic activity of compound against human MCF-7 cell line.

Take `CC[C@@]1(O)C(=O)OCc2c1cc1n(c2=O)Cc2cc3ccccc3nc2-1` [CAMPTOTHECIN]: the pIC50 with L1210 is 7.22; with PC-3 it was 6.51; in the assay on MCF7, 6.49.
The corresponding values for `COc1ccc2c(c1)cc1n2Cc2c-1nc1ccc(O)cc1c2C` are 6.22, less than 4.30 and 4.92.
With `COc1ccc2c(c1)cc1n2Cc2c-1nc1ccc(OCCN3CCCCC3)cc1c2C`, the pIC50 in the assay on L1210 was 5.41; with PC-3, 5.26; with MCF7 it was 5.28.
As to `Cc1c2c(nc3ccc(OCCN4CCCCC4)cc13)-c1cc3cc(OCCN4CCCCC4)ccc3n1C2`, the results for the pIC50 in the assay on L1210, in the assay with PC-3 and in the assay with MCF7 were 6.26, 5.28 and 5.34, respectively.
On the same counts, the results for `Cc1c2c(nc3ccc(OCCN4CCCCC4)cc13)-c1cc3cc(O)ccc3n1C2` are 6.26, 5.31 and 6.26.
On the same counts, the results for `Cc1c2c(nc3ccc(O)cc13)-c1cc3cc(O)ccc3n1C2` are 5.47, less than 5.00 and less than 4.30.
The corresponding values for `CCc1c2c(nc3ccc(OCCN4CCCCC4)cc13)-c1cc3cc(O)ccc3n1C2` are 6.26, 5.32 and 5.20.
